Measured values taken from PubChem BioAssay AID328 (DTP/NCI, 2004).
Several values for one entry are separate records, joined by “and”; a condition that tells them apart may be missing. Equal values may be shown once. Inconclusive results and toxic doses are left out.

Test system: BDF1 mice, P388 leukemia ip, median survival T/C
Test: NCI In Vivo Anticancer Drug Screen. Data for tumor model P388 Leukemia (intraperitoneal) in B6D2F1 (BDF1) mice
Conditions: endpoint: median survival time, higher = longer survival
Summary of the method: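 T/C = treated-group survival ÷ vehicle-control survival; tumour transplanted into mice before dosing.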

[1] = dose: 25.0 mg/kg/injection, schedule: Q01DX009 (ip), vehicle: saline
[2] = dose: 100.0 mg/kg/injection, schedule: Q01DX009 (ip), vehicle: saline with Tween-80
[3] = dose: 100.0 mg/kg/injection, schedule: Q04DX003 (ip), vehicle: saline with Tween-80
[4] = dose: 200.0 mg/kg/injection, schedule: Q01DX009 (ip), vehicle: saline with Tween-80
[5] = dose: 200.0 mg/kg/injection, schedule: Q04DX003 (ip), vehicle: saline with Tween-80
[6] = dose: 400.0 mg/kg/injection, schedule: Q04DX003 (ip), vehicle: saline with Tween-80
[7] = dose: 50.0 mg/kg/injection, schedule: Q01DX009 (ip), vehicle: Klucel (hydroxypropylcellulose) (HPC)
[8] = dose: 100.0 mg/kg/injection, schedule: Q01DX009 (ip), vehicle: Klucel (hydroxypropylcellulose) (HPC)
[9] = dose: 200.0 mg/kg/injection, schedule: Q01DX009 (ip), vehicle: Klucel (hydroxypropylcellulose) (HPC)
[10] = dose: 100.0 mg/kg/injection, schedule: Q04DX003 (ip), vehicle: Klucel (hydroxypropylcellulose) (HPC)
[11] = dose: 200.0 mg/kg/injection, schedule: Q04DX003 (ip), vehicle: Klucel (hydroxypropylcellulose) (HPC)
[12] = dose: 400.0 mg/kg/injection, schedule: Q01DX009 (ip), vehicle: Klucel (hydroxypropylcellulose) (HPC)
[13] = dose: 400.0 mg/kg/injection, schedule: Q04DX003 (ip), vehicle: Klucel (hydroxypropylcellulose) (HPC)
[14] = dose: 25.0 mg/kg/injection, schedule: Q01DX009 (ip), vehicle: saline with Tween-80
[15] = dose: 50.0 mg/kg/injection, schedule: Q01DX009 (ip), vehicle: saline with Tween-80

In the case of `COC(/C=C\C(OC)OC)OC`, the T/C (dose: 4.1 mg/kg/injection, schedule: Q01DX009 (ip), vehicle: saline) is reported as 109 % of control, the T/C (dose: 4.17 mg/kg/injection, schedule: Q01DX009 (ip), vehicle: saline) is reported as 100 % of control and the T/C (dose: 6.25 mg/kg/injection, schedule: Q01DX009 (ip), vehicle: saline) is reported as 100 % of control and 122 % of control. For the same compound, the T/C (dose: 9.3 mg/kg/injection, schedule: Q01DX009 (ip), vehicle: saline) was 122 % of control, the T/C (dose: 9.37 mg/kg/injection, schedule: Q01DX009 (ip), vehicle: saline) was 95 % of control and the T/C (dose: 12.5 mg/kg/injection, schedule: Q01DX009 (ip), vehicle: saline) was 112 % of control. The T/C (dose: 18.75 mg/kg/injection, schedule: Q04DX003 (ip), vehicle: saline) was 110 % of control, the T/C [1] was 112 % of control and the T/C (dose: 37.5 mg/kg/injection, schedule: Q04DX003 (ip), vehicle: saline) was 105 % of control.
`COC1C(CNC23CC4CC(CC(C4)C2)C3)OC2OC(C)(C)OC21` (configuration not stated) was tested, and the T/C (dose: 25.0 mg/kg/injection, schedule: Q01DX005 (ip), vehicle: saline with Tween-80) was 101 % of control, the T/C (dose: 50.0 mg/kg/injection, schedule: Q01DX005 (ip), vehicle: saline with Tween-80) was 100 % of control and 113 % of control and the T/C (dose: 100.0 mg/kg/injection, schedule: Q01DX005 (ip), vehicle: saline with Tween-80) was 99 % of control and 121 % of control. The T/C (dose: 200.0 mg/kg/injection, schedule: Q01DX005 (ip), vehicle: saline with Tween-80) was 105 % of control and 115 % of control.
With `CCOC(=O)CC(=O)N/N=C(/C)C(=O)OCC` the T/C [2] was 108 % of control, the T/C [3] was 88 % of control and the T/C [4] was 99 % of control. For the same compound, the T/C [5] was 97 % of control and the T/C [6] was 111 % of control.
In the case of `CC1(C)CC(=O)N/C1=C\C1NC(=O)CC1(C)C` (configuration not stated), the T/C [2] is reported as 104 % of control and the T/C [4] is reported as 109 % of control.
With `O=C(O)CCCCCS` the T/C [7] was 100 % of control, the T/C [8] was 102 % of control and the T/C [9] was 99 % of control.
For `CC(SC(C)c1ccccc1)c1ccccc1` (configuration not stated), the T/C [3] was 108 % of control, the T/C [5] was 108 % of control and the T/C [6] was 116 % of control.
In the case of `CCCC(C1=CC(C)(C)c2ccccc2C1=O)c1ccc(Br)cc1` (configuration not stated), the T/C (dose: 75.0 mg/kg/injection, schedule: Q01DX009 (ip), vehicle: Klucel (hydroxypropylcellulose) (HPC)) is reported as 109 % of control, the T/C [8] is reported as 100 % of control and the T/C [10] is reported as 100 % of control. The T/C (dose: 150.0 mg/kg/injection, schedule: Q01DX009 (ip), vehicle: Klucel (hydroxypropylcellulose) (HPC)) was 113 % of control, the T/C [9] was 95 % of control and 100 % of control and the T/C [11] was 100 % of control. The T/C (dose: 300.0 mg/kg/injection, schedule: Q01DX009 (ip), vehicle: Klucel (hydroxypropylcellulose) (HPC)) was 100 % of control, the T/C [12] was 95 % of control and the T/C [13] was 100 % of control.
For `CCCC(C(=O)c1ccc(OC)cc1)C(O)(C(F)(F)F)C(F)(F)F` (configuration not stated), the T/C [10] was 95 % of control, the T/C [11] was 100 % of control and the T/C [13] was 100 % of control.
`CC(C)(S(=O)(=O)Oc1ccccc1)S(=O)(=O)Oc1ccccc1` was tested, and the T/C [3] was 93 % of control, the T/C [5] was 87 % of control and the T/C [6] was 92 % of control.
With `S=P(N1CCCCCC1)(N1CC1)N1CC1` the T/C (dose: 16.5 mg/kg/injection, schedule: Q01DX009 (ip), vehicle: saline) was 154 % of control, the T/C [1] was 195 % of control and the T/C (dose: 37.5 mg/kg/injection, schedule: Q01DX009 (ip), vehicle: saline) was 122 % of control.
In the case of `Nc1nc(Cc2ccccc2)c(CCCNc2ccccc2)c(=O)[nH]1`, the T/C (dose: 6.25 mg/kg/injection, schedule: Q01DX009 (ip), vehicle: saline with Tween-80) is reported as 107 % of control, the T/C [14] is reported as 98 % of control and the T/C [15] is reported as 96 % of control.
With `C=C/C(C)=C/[C@H](C)C(=O)C[C@H](O)CC1CC(=O)NC(=O)C1` the T/C (dose: 7.3 mg/kg/injection, schedule: Q01DX009 (ip), vehicle: saline with Tween-80) was 111 % of control, the T/C (dose: 11.0 mg/kg/injection, schedule: Q01DX009 (ip), vehicle: saline with Tween-80) was 121 % of control and the T/C (dose: 16.5 mg/kg/injection, schedule: Q01DX009 (ip), vehicle: saline with Tween-80) was 171 % of control. The T/C [14] was 123 % of control and 124 % of control, the T/C (dose: 37.5 mg/kg/injection, schedule: Q01DX009 (ip), vehicle: saline with Tween-80) was 152 % of control and the T/C (dose: 75.0 mg/kg/injection, schedule: Q01DX009 (ip), vehicle: saline with Tween-80) was 180 % of control.
`O=c1cc(-c2ccccc2)nc2ccccn12` was tested, and the T/C (dose: 12.5 mg/kg/injection, schedule: Q01DX001 (ip), vehicle: saline with Tween-80) was 109 % of control, the T/C (dose: 25.0 mg/kg/injection, schedule: Q01DX001 (ip), vehicle: saline with Tween-80) was 104 % of control and the T/C (dose: 50.0 mg/kg/injection, schedule: Q01DX001 (ip), vehicle: saline with Tween-80) was 123 % of control.
With `Cc1c2oc3c(C)c(N)cc(C(=O)NC4C(=O)NC(C(C)C)C(=O)N5CCCC5C(=O)N(C)CC(=O)N(C)C(C(C)C)C(=O)OC4C)c3nc-2c(C(=O)NC2C(=O)NC(C(C)C)C(=O)N3CCCC3C(=O)N(C)CC(=O)N(C)C(C(C)C)C(=O)OC2C)c(N)c1=O` (configuration not stated) the T/C (dose: 75.0 micrograms/kg/injection, schedule: Q01DX009 (ip), vehicle: saline + alcohol) was 153 % of control, the T/C (dose: 225.0 micrograms/kg/injection, schedule: Q04DX003 (ip), vehicle: saline + alcohol) was 151 % of control and the T/C (dose: 450.0 micrograms/kg/injection, schedule: Q04DX003 (ip), vehicle: saline + alcohol) was 90 % of control.
`CS(=O)(=O)OCCCl` was tested, and the T/C (dose: 18.8 mg/kg/injection, schedule: Q01DX010 (ip), vehicle: saline) was 105 % of control and 120 % of control, the T/C (dose: 37.5 mg/kg/injection, schedule: Q01DX010 (ip), vehicle: saline) was 100 % of control and 110 % of control and the T/C (dose: 75.0 mg/kg/injection, schedule: Q01DX010 (ip), vehicle: saline) was 100 % of control.
With `[O-][n+]1c(CN2CCCCC2)nc2cccc3c2c1-c1ccccc1-3` the T/C (dose: 12.5 mg/kg/injection, schedule: Q03HX008 (ip), vehicle: saline) was 92 % of control, the T/C (dose: 12.5 mg/kg/injection, schedule: Q03HX016 (ip), vehicle: saline) was 100 % of control and the T/C (dose: 12.5 mg/kg/injection, schedule: Q03HX024 (ip), vehicle: saline) was 96 % of control. For the same compound, the T/C [14] was 105 % of control, the T/C (dose: 25.0 mg/kg/injection, schedule: Q03HX008 (ip), vehicle: saline) was 95 % of control and the T/C (dose: 25.0 mg/kg/injection, schedule: Q03HX016 (ip), vehicle: saline) was 99 % of control. The T/C (dose: 25.0 mg/kg/injection, schedule: Q03HX024 (ip), vehicle: saline) was 93 % of control, the T/C [7] was 116 % of control and the T/C [15] was 108 % of control and 116 % of control. The T/C (dose: 50.0 mg/kg/injection, schedule: Q03HX008 (ip), vehicle: saline) was 95 % of control, the T/C (dose: 50.0 mg/kg/injection, schedule: Q03HX016 (ip), vehicle: saline) was 94 % of control and the T/C (dose: 50.0 mg/kg/injection, schedule: Q03HX024 (ip), vehicle: saline) was 110 % of control. The T/C (dose: 50.0 mg/kg/injection, schedule: Q08HX027 (ip), vehicle: saline) was 113 % of control, the T/C [8] was 100 % of control and the T/C (dose: 100.0 mg/kg/injection, schedule: Q03HX008 (ip), vehicle: saline) was 92 % of control. For the same compound, the T/C (dose: 100.0 mg/kg/injection, schedule: Q03HX016 (ip), vehicle: saline) was 90 % of control, the T/C (dose: 100.0 mg/kg/injection, schedule: Q03HX024 (ip), vehicle: saline) was 115 % of control and the T/C (dose: 100.0 mg/kg/injection, schedule: Q08HX027 (ip), vehicle: saline) was 119 % of control. For the same compound, the T/C (dose: 150.0 mg/kg/injection, schedule: Q01DX009 (oral), vehicle: saline) was 91 % of control, the T/C [4] was 158 % of control and the T/C (dose: 200.0 mg/kg/injection, schedule: Q01DX009 (ip), vehicle: saline) was 222 % of control. The T/C (dose: 300.0 mg/kg/injection, schedule: Q01DX009 (oral), vehicle: saline) was 95 % of control, the T/C [12] was 151 % of control and the T/C (dose: 400.0 mg/kg/injection, schedule: Q01DX009 (oral), vehicle: saline) was 98 % of control. For the same compound, the T/C (dose: 600.0 mg/kg/injection, schedule: Q01DX009 (oral), vehicle: saline) was 103 % of control.
